From PubChem BioAssay AID1259407 (Chemical Carcinogenesis Research Information System (CCRIS), 2018)
The source made the active and inactive calls. No rule for the calls is given here.

Tested on: CCRIS mutagenicity, Ames/micronucleus/aberration tests
Experiment: CCRIS mutagenicity studies
[1] = Test System: AMES SALMONELLA TYPHIMURIUM, Strain/Indicator: TA98, Metabolic Activation: NONE, Method: STANDARD PLATE
[2] = Test System: AMES SALMONELLA TYPHIMURIUM, Strain/Indicator: TA100, Metabolic Activation: NONE, Method: PREINCUBATION
[3] = Test System: AMES SALMONELLA TYPHIMURIUM, Strain/Indicator: TA100, Metabolic Activation: HAMSTER, LIVER, S-9, AROCLOR 1254 (10%), Method: PREINCUBATION
[4] = Test System: AMES SALMONELLA TYPHIMURIUM, Strain/Indicator: TA100, Metabolic Activation: RAT, LIVER, S-9, AROCLOR 1254 (10%), Method: PREINCUBATION
[5] = Test System: AMES SALMONELLA TYPHIMURIUM, Strain/Indicator: TA1535, Metabolic Activation: HAMSTER, LIVER, S-9, AROCLOR 1254 (10%), Method: PREINCUBATION
[6] = Test System: AMES SALMONELLA TYPHIMURIUM, Strain/Indicator: TA1535, Metabolic Activation: NONE, Method: PREINCUBATION
[7] = Test System: AMES SALMONELLA TYPHIMURIUM, Strain/Indicator: TA1535, Metabolic Activation: RAT, LIVER, S-9, AROCLOR 1254 (10%), Method: PREINCUBATION

With CC(C)OC(=O)c1cc(NC(=S)OC(C)C)ccc1Cl the mutagenic call (Test System: Mouse lymphoma, Strain/Indicator: L5178Y (tk+/tk-), Metabolic Activation: None, Method: Suspension/plate) was “inactive; negative” and the mutagenic call (Test System: Mouse lymphoma, Strain/Indicator: L5178Y (tk+/tk-), Metabolic Activation: Rat, Liver, S-9, Aroclor 1254, Method: Suspension/plate) was “inactive; negative”.

For Nc1nc(Cl)cc(Cl)n1, the mutagenic call (Test System: AMES SALMONELLA TYPHIMURIUM, Strain/Indicator: TA98, Metabolic Activation: HAMSTER, LIVER, S-9, AROCLOR 1254, Method: STANDARD PLATE) was “inactive; negative”, the mutagenic call [1] was “inactive; negative” and the mutagenic call (Test System: AMES SALMONELLA TYPHIMURIUM, Strain/Indicator: TA98, Metabolic Activation: RAT, LIVER, S-9, AROCLOR 1254, Method: STANDARD PLATE) was “inactive; negative”. The mutagenic call (Test System: AMES SALMONELLA TYPHIMURIUM, Strain/Indicator: TA100, Metabolic Activation: HAMSTER, LIVER, S-9, AROCLOR 1254, Method: STANDARD PLATE) was “inactive; negative”, the mutagenic call (Test System: AMES SALMONELLA TYPHIMURIUM, Strain/Indicator: TA100, Metabolic Activation: NONE, Method: STANDARD PLATE) was “inactive; negative” and the mutagenic call (Test System: AMES SALMONELLA TYPHIMURIUM, Strain/Indicator: TA100, Metabolic Activation: RAT, LIVER, S-9, AROCLOR 1254, Method: STANDARD PLATE) was “inactive; negative”. For the same compound, the mutagenic call (Test System: AMES SALMONELLA TYPHIMURIUM, Strain/Indicator: TA1535, Metabolic Activation: HAMSTER, LIVER, S-9, AROCLOR 1254, Method: STANDARD PLATE) was “inactive; negative”, the mutagenic call (Test System: AMES SALMONELLA TYPHIMURIUM, Strain/Indicator: TA1535, Metabolic Activation: NONE, Method: STANDARD PLATE) was “inactive; negative” and the mutagenic call (Test System: AMES SALMONELLA TYPHIMURIUM, Strain/Indicator: TA1535, Metabolic Activation: RAT, LIVER, S-9, AROCLOR 1254, Method: STANDARD PLATE) was “inactive; negative”. The mutagenic call (Test System: AMES SALMONELLA TYPHIMURIUM, Strain/Indicator: TA1537, Metabolic Activation: HAMSTER, LIVER, S-9, AROCLOR 1254, Method: STANDARD PLATE) was “inactive; negative”, the mutagenic call (Test System: AMES SALMONELLA TYPHIMURIUM, Strain/Indicator: TA1537, Metabolic Activation: NONE, Method: STANDARD PLATE) was “inactive; negative” and the mutagenic call (Test System: AMES SALMONELLA TYPHIMURIUM, Strain/Indicator: TA1537, Metabolic Activation: RAT, LIVER, S-9, AROCLOR 1254, Method: STANDARD PLATE) was “inactive; negative”. For the same compound, the mutagenic call (Test System: AMES SALMONELLA TYPHIMURIUM, Strain/Indicator: TA1538, Metabolic Activation: HAMSTER, LIVER, S-9, AROCLOR 1254, Method: STANDARD PLATE) was “inactive; negative”, the mutagenic call (Test System: AMES SALMONELLA TYPHIMURIUM, Strain/Indicator: TA1538, Metabolic Activation: NONE, Method: STANDARD PLATE) was “inactive; negative” and the mutagenic call (Test System: AMES SALMONELLA TYPHIMURIUM, Strain/Indicator: TA1538, Metabolic Activation: RAT, LIVER, S-9, AROCLOR 1254, Method: STANDARD PLATE) was “inactive; negative”. The mutagenic call (Test System: MOUSE LYMPHOMA, Strain/Indicator: L5178Y (TK+/TK-), Metabolic Activation: NONE, Method: SUSPENSION/PLATE) was “active; positive. reevaluation of results: positive” and the mutagenic call (Test System: MOUSE LYMPHOMA, Strain/Indicator: L5178Y (TK+/TK-), Metabolic Activation: RAT, LIVER, S-9, AROCLOR 1254, Method: SUSPENSION/PLATE) was “active; positive. reevaluation of results: inconclusive”.

With O=C/C=C/c1ccc([N+](=O)[O-])o1 the mutagenic call (Test System: AMES SALMONELLA TYPHIMURIUM, Strain/Indicator: TA98(1,8-DNP6), Metabolic Activation: NONE, Method: STANDARD PLATE) was “active; positive”, the mutagenic call (Test System: AMES SALMONELLA TYPHIMURIUM, Strain/Indicator: TA98(1,8-DNP6), Metabolic Activation: RAT, LIVER, S-9, 3-METHYLCHOLANTHRENE, Method: STANDARD PLATE) was “active; positive” and the mutagenic call (Test System: AMES SALMONELLA TYPHIMURIUM, Strain/Indicator: TA98(NR), Metabolic Activation: NONE, Method: STANDARD PLATE) was “active; positive”. For the same compound, the mutagenic call (Test System: AMES SALMONELLA TYPHIMURIUM, Strain/Indicator: TA98(NR), Metabolic Activation: RAT, LIVER, S-9, 3-METHYLCHOLANTHRENE, Method: STANDARD PLATE) was “active; positive”, the mutagenic call [1] was “active; positive” and the mutagenic call (Test System: AMES SALMONELLA TYPHIMURIUM, Strain/Indicator: TA98, Metabolic Activation: RAT, LIVER, S-9, 3-METHYLCHOLANTHRENE, Method: STANDARD PLATE) was “active; positive”. The mutagenic call (Test System: AMES SALMONELLA TYPHIMURIUM, Strain/Indicator: TA100(1,8-DNP6), Metabolic Activation: NONE, Method: PREINCUBATION) was “active; positive”, the mutagenic call (Test System: AMES SALMONELLA TYPHIMURIUM, Strain/Indicator: TA100(1,8-DNP6), Metabolic Activation: RAT, LIVER, S-9, AROCLOR 1254, Method: PREINCUBATION) was “active; positive” and the mutagenic call (Test System: AMES SALMONELLA TYPHIMURIUM, Strain/Indicator: TA100(NR), Metabolic Activation: NONE, Method: PREINCUBATION) was “active; positive”. For the same compound, the mutagenic call (Test System: AMES SALMONELLA TYPHIMURIUM, Strain/Indicator: TA100(NR), Metabolic Activation: RAT, LIVER, S-9, AROCLOR 1254, Method: PREINCUBATION) was “active; positive”, the mutagenic call [2] was “active; positive” and the mutagenic call (Test System: AMES SALMONELLA TYPHIMURIUM, Strain/Indicator: TA100, Metabolic Activation: RAT, LIVER, S-9, AROCLOR 1254, Method: PREINCUBATION) was “active; positive”.

For COC1=CC(=O)OC(/C=C/c2ccccc2)C1 (stereo not drawn), the mutagenic call (Test System: L5178Y ( tk+/tk-), Metabolic Activation: Human, Liver, S-9, Method: Suspension/plate) was “inactive; negative”.

In the case of CCOc1ccccc1C(N)=O, the mutagenic call (End Point: IN VITRO CHROMOSOMAL ABERRATIONS, Test System: CHL/IU CELLS, Metabolic Activation: NONE) is reported as “active; positive (structural changes)” and the mutagenic call (End Point: IN VITRO MICRONUCLEUS, Test System: CHL/IU CELLS, Metabolic Activation: NONE) is reported as “active; positive”.

ClC(Cl)(Cl)CC1CO1 (stereo not drawn) was tested, and the mutagenic call [3] was “inactive; negative”, the mutagenic call [2] was “active; positive” and the mutagenic call [4] was “inactive; negative”. The mutagenic call [5] was “inactive; negative”, the mutagenic call [6] was “inactive; negative” and the mutagenic call [7] was “inactive; negative”.

With O=C(O)CN(CC(=O)O)C1C[C@H]1N(CC(=O)O)CC(=O)O (stereo partly drawn) the mutagenic call (Test System: CHINESE HAMSTER V-79, Strain/Indicator: V-79/OUABAIN, Metabolic Activation: NONE, Method: STANDARD PLATE) was “active; positive” and the mutagenic call (Test System: UDS RODENT CELLS, Strain/Indicator: THY INCORP (NON-S-PHASE), Metabolic Activation: NONE, Method: AUTORADIOGRAPHY) was “active; positive”.

CCCC(=O)OCC was tested, and the mutagenic call (Test System: AMES SALMONELLA TYPHIMURIUM, Strain/Indicator: TA97, Metabolic Activation: NONE, Method: PREINCUBATION) was “inactive; negative”, the mutagenic call (Test System: AMES SALMONELLA TYPHIMURIUM, Strain/Indicator: TA97, Metabolic Activation: RAT, LIVER, S-9, AROCLOR 1254, Method: PREINCUBATION) was “inactive; negative” and the mutagenic call (Test System: AMES SALMONELLA TYPHIMURIUM, Strain/Indicator: TA102, Metabolic Activation: NONE, Method: PREINCUBATION) was “inactive; negative”. The mutagenic call (Test System: AMES SALMONELLA TYPHIMURIUM, Strain/Indicator: TA102, Metabolic Activation: RAT, LIVER, S-9, AROCLOR 1254, Method: PREINCUBATION) was “inactive; negative”.

In the case of CCCCCCCCC/C=C/CC1CC(=O)OC1=O (stereo not drawn), the mutagenic call (Test System: AMES SALMONELLA TYPHIMURIUM, Strain/Indicator: TA98, Metabolic Activation: HAMSTER, LIVER, S-9, AROCLOR 1254 (10%), Method: PREINCUBATION) is reported as “inactive; negative”, the mutagenic call (Test System: AMES SALMONELLA TYPHIMURIUM, Strain/Indicator: TA98, Metabolic Activation: NONE, Method: PREINCUBATION) is reported as “inactive; negative” and the mutagenic call (Test System: AMES SALMONELLA TYPHIMURIUM, Strain/Indicator: TA98, Metabolic Activation: RAT, LIVER, S-9, AROCLOR 1254 (10%), Method: PREINCUBATION) is reported as “inactive; negative”. The mutagenic call [3] was “inactive; negative”, the mutagenic call [2] was “inactive; negative” and the mutagenic call [4] was “inactive; negative”. The mutagenic call [5] was “inactive; negative”, the mutagenic call [6] was “inactive; negative” and the mutagenic call [7] was “inactive; negative”. The mutagenic call (Test System: AMES SALMONELLA TYPHIMURIUM, Strain/Indicator: TA1537, Metabolic Activation: HAMSTER, LIVER, S-9, AROCLOR 1254 (10%), Method: PREINCUBATION) was “inactive; negative”, the mutagenic call (Test System: AMES SALMONELLA TYPHIMURIUM, Strain/Indicator: TA1537, Metabolic Activation: NONE, Method: PREINCUBATION) was “inactive; negative” and the mutagenic call (Test System: AMES SALMONELLA TYPHIMURIUM, Strain/Indicator: TA1537, Metabolic Activation: RAT, LIVER, S-9, AROCLOR 1254 (10%), Method: PREINCUBATION) was “inactive; negative”.
